{"source": "patent US20210207099A1", "about": "“METHODS AND COMPOSITIONS FOR GENERATING CELLS OF ENDODERMAL LINEAGE AND BETA CELLS AND USES THEREOF” (priority 2018, published 2021)", "assay_type_in_all_cases": "cell-based, human", "key": {"[1]": {"tested_on": "HUES8 cells, hepatic differentiation protocol", "experiment": "Liver differentiation with cytoskeletal compounds", "conditions": "1 μM for the first 24 hours of stage 3", "experimental": "(§1) For differentiation to other endodermal lineages, HUES8 stem cells were cultured and passaged normally. Differentiations were initiated 24 hours after seeding 24-well plates at 0.521×10^6 cells/cm^2. Protocols for exocrine pancreas, intestine, and liver were adapted, from literature. Either latrunculin A or nocodazole were added as indicated in each protocol. All three differentiation protocols used the same stage 1 to induce endoderm. Stage 1 (4 days): BE1 media+100 ng/mL Activin A+3 μM CHIR99021 for the first 24 hours, followed with 3 days of BE1 containing 100 ng/mL Activin A only.\nLiver Differentiation: Stage 2 (2 days): BE2 media+50 ng/mL KGF. Stage 3 (4 days): BE3 media+10 ng/mL bFGF+30 ng/mL BMP4 (R&D Systems, 314-BP). For the first 24 hours only, 2 μM retinoic acid and either 1 μM latrunculin A or 1 μM nocodazole were added. Stage 4 (5 days): BE3 media+20 ng/mL OSM (R&D Systems, 295-OM)+20 ng/mL HGF (R&D Systems, 294-HG)+100 nM dexamethasone (MilliporeSigma, D4902)."}, "[2]": {"tested_on": "plated cells of the SC-β cell protocol", "experiment": "Bulk RNA sequencing at stage 6 of plated cells treated with latrunculin A", "experimental": "Cells generated with the suspension protocol were single-cell dispersed from clusters with TrypLE at the end of stage 3 and seeded onto collagen 1 coated 24-well plates at 0.625×10^6 cells/cm^2. Either 0.5 μM latrunculin A was added throughout the entirety of stage 4 or 1 μM latrunculin A was added for the first 24 hours of stage 5. After two weeks in stage 6, RNA was extracted with the RNeasy Mini Kit (Qiagen, 74016), including a DNase treatment (Qiagen, 79254) during extraction. Samples were delivered to Washington University in St. Louis Genome Technology Access Center for library preparation and sequencing. Samples were prepared by RNA depletion using Ribo-Zero according to library kit manufacturer's protocol, indexed, pooled, and sequenced on an Illumine HiSeq.\nDifferential gene expression analysis was performed using EdgeR. DGEList was used to create the count object and normalized the data using the trimmed mean M-values (TMM) method with calcNormFactors. Pairwise comparisons were performed using exactTest and used topTags to obtain differentially expressed genes and their respective log fold change (log FC) and adjusted p-value (FDR). These values were used to generate volcano plots using ggplot2. Hierarchical clustering and heatmaps were performed and generated with heatmap.2 (gplots) using log CPM calculated expression levels. […]"}, "[3]": {"tested_on": "HUES8 cells, intestinal differentiation protocol", "experiment": "Intestine differentiation with cytoskeletal compounds", "conditions": "1 μM for the first 24 hours of stage 2", "experimental": "as §1\nIntestine Differentiation: Stage 2 (4 days): BE2 media+3 μM CHIR99021+500 ng/mL FGF4 (R&D Systems, 235-F4). Either 1 μM latrunculin A was added for the first 24 hours of this stage, or 1 μM nocodazole was added for the entirety of stage 2. Stage 3 (7 days): BE3 media+500 ng/mL R-spondin1 (R&D Systems, 4645-RS)+100 ng/mL EGF (R&D Systems, 236-EG)+200 nM LDN193189."}}, "data": [{"smiles": "C/C1=C/C(=O)O[C@@H]2C[C@@H](CC[C@H](C)/C=C\\C=C\\CC1)O[C@@](O)([C@@H]1CSC(=O)N1)C2", "note": "[latrunculin A]", "values": [{"measurement": "hepatocyte gene expression", "setting": "[1]", "result": "increased hepatocyte gene expression"}, {"measurement": "immunostaining for AFP", "setting": "[1]", "result": "more prevalent with latrunculin A treatment"}, {"measurement": "gene expression profile at stage 6", "setting": "[2]; 0.5 μM throughout stage 4", "result": "increasing intestine and stomach gene expression"}, {"measurement": "gene expression profile at stage 6", "setting": "[2]; 1 μM for the first 24 hours of stage 5", "result": "increasing expression of β cell and islet genes"}, {"measurement": "markers of intestinal stem cells and Paneth cells", "setting": "[3]", "result": "greatly increased markers intestinal stem cells as well as Paneth cells"}]}]}
